Source: PubChem BioAssay (NCI)
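How tested: cells in 96-well plates exposed to compound for 48 hours at five concentrations. Definition used: TGI = concentration required for complete inhibition of growth.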

Tests used:
Experiment in all cases: NCI anticancer screen, dose series, 48 h
786-0 renal = test system: 786-0 renal
A498 renal = test system: A498 renal
A549 NSCLC = test system: A549 NSCLC
ACHN renal = test system: ACHN renal
CAKI-1 renal = test system: CAKI-1 renal
CCRF-CEM leukemia = test system: CCRF-CEM leukemia
DLD-1 colon = test system: DLD-1 colon
DMS 114 small cell lung = test system: DMS 114 small cell lung
DMS 273 small cell lung = test system: DMS 273 small cell lung
EKVX NSCLC = test system: EKVX NSCLC
HCC-2998 colon = test system: HCC-2998 colon
HCT-116 colon = test system: HCT-116 colon
HCT-15 colon = test system: HCT-15 colon
HL-60(TB) leukemia = test system: HL-60(TB) leukemia
HOP-18 NSCLC = test system: HOP-18 NSCLC
HOP-92 NSCLC = test system: HOP-92 NSCLC
HT29 colon = test system: HT29 colon
K-562 leukemia = test system: K-562 leukemia
KM20L2 colon = test system: KM20L2 colon
LOX IMVI melanoma = test system: LOX IMVI melanoma
LXFL 529 NSCLC = test system: LXFL 529 NSCLC
M14 melanoma = test system: M14 melanoma
M19-MEL melanoma = test system: M19-MEL melanoma
MALME-3M melanoma = test system: MALME-3M melanoma
MOLT-4 leukemia = test system: MOLT-4 leukemia
NCI-H226 lung = test system: NCI-H226 lung
NCI-H23 lung = test system: NCI-H23 lung
NCI-H460 lung = test system: NCI-H460 lung
NCI-H522 lung = test system: NCI-H522 lung
OVCAR-3 ovarian = test system: OVCAR-3 ovarian
OVCAR-4 ovarian = test system: OVCAR-4 ovarian
OVCAR-5 ovarian = test system: OVCAR-5 ovarian
OVCAR-8 ovarian = test system: OVCAR-8 ovarian
RPMI-8226 leukemia = test system: RPMI-8226 leukemia
RXF 393 renal = test system: RXF 393 renal
RXF-631 renal = test system: RXF-631 renal
SF-295 CNS = test system: SF-295 CNS
SF-539 CNS = test system: SF-539 CNS
SK-MEL-2 melanoma = test system: SK-MEL-2 melanoma
SK-MEL-28 melanoma = test system: SK-MEL-28 melanoma
SK-MEL-5 melanoma = test system: SK-MEL-5 melanoma
SN12C renal = test system: SN12C renal
SNB-19 CNS = test system: SNB-19 CNS
SNB-75 CNS = test system: SNB-75 CNS
SNB-78 CNS = test system: SNB-78 CNS
SR leukemia = test system: SR leukemia
SW-620 colon = test system: SW-620 colon
TK-10 renal = test system: TK-10 renal
U251 CNS = test system: U251 CNS
UACC-257 melanoma = test system: UACC-257 melanoma
UACC-62 melanoma = test system: UACC-62 melanoma
UO-31 renal = test system: UO-31 renal
COLO 205 colon = test system: COLO 205 colon
IGROV1 ovarian = test system: IGROV1 ovarian
KM12 colon = test system: KM12 colon
SF-268 CNS = test system: SF-268 CNS
SK-OV-3 ovarian = test system: SK-OV-3 ovarian
HOP-62 NSCLC = test system: HOP-62 NSCLC
XF 498 CNS = test system: XF 498 CNS

Measured: TGI

CN(c1ccccc1)c1c(Cl)c(=O)oc2c1ccc1occc12
not listed: COLO 205 colon | IGROV1 ovarian | KM12 colon | SF-268 CNS | SK-OV-3 ovarian | HOP-62 NSCLC | XF 498 CNS
> 100 µM: all other assays above

ClC(Cl)[Si]12OCCN(CCO1)CCO2
not listed: EKVX NSCLC | HCT-15 colon | KM20L2 colon | LOX IMVI melanoma | M14 melanoma | M19-MEL melanoma | NCI-H226 lung | OVCAR-4 ovarian | HOP-62 NSCLC | XF 498 CNS
> 100 µM: all other assays above

C=CCc1cc(OC)c2c(c1)C(OC)CC(c1ccc(OC)c(OC)c1)O2 (centres undefined)
not listed: HOP-18 NSCLC | HOP-92 NSCLC | NCI-H226 lung | NCI-H23 lung | NCI-H522 lung | RXF 393 renal | SR leukemia
> 100 µM: all other assays above

c1ccc2c(c1)cc1n2CC2CN=NC12 (centres undefined)
not listed: CCRF-CEM leukemia | DMS 114 small cell lung | HOP-18 NSCLC | HOP-92 NSCLC | NCI-H23 lung | TK-10 renal | COLO 205 colon | XF 498 CNS
> 100 µM: all other assays above
